The nature of data set [1]: Mouse pharmacokinetics, intravenous. It is filed as in vivo. The settings on record: plasma, male CD1 mice, single intravenous 5.925 mg/kg. The protocol:
Mouse pharmacokinetics were acquired using bicyclic peptide 17-69-04-N004, which was dosed to one group of 12 male CD1 mice as a single intravenous, 5.925 mg/kg doses as a 5 mL/kg bolus of a 1.19 mg/mL solution. […] Blood samples were taken from two animals per time-point, via cardiac puncture under terminal anaesthesia, at 0.08, 0.5, 1, 2 and 4 hours post-dose, and transferred to EDTA tubes for plasma generation. Plasma samples were immediately frozen at −20 C. For analysis, samples were thawed rapidly and 50 μL aliquots were treated with 3 volumes of extraction solvent (2:9:9 mixture of 10 mM ammonium bicarbonate, pH 8, acetonitrile and methanol, containing an analytical internal standard). Precipitated proteins were removed by centrifugation and the supernatant was analysed by LC-MS/MS. Quantification of the samples was by reference to a calibration line prepared in control mouse plasma. Pharmacokinetic parameters were determined by non-compartmental analysis using the software package PK Solutions 2.0 from Summit Research Services.

The target of the next data set is T1, MT1-MMP hemopexin domain (Homo sapiens, UniProt P50281).
T1 construct: residues Cys319-Gly511 from the human gene; His6 (N); made in house; host or cells: HEK293 (transient), pEXPR-IBA42 vector
In words: Competition assay using fluorescence polarisation. The settings on record: for Kd: read-out: Kd. The format is binding. The source says:
Here, a pre-formed complex of PEX with the fluorescent PEX-binding tracer is titrated with free, non-fluoresceinated bicyclic peptide. Since all 17-69-based peptides are expected to bind at the same site, the titrant will displace the fluorescent tracer from PEX. Dissociation of the complex can be measured quantitatively, and the Kd of the competitor (titrant) to the target protein determined. The advantage of the competition method is that the affinities of non-fluoresceinated bicyclic peptides can be determined accurately and rapidly.
Subsequently, the non-fluorescent competitor bicyclic peptide (usually just the bicycle core sequence) is titrated, such that it displaces the fluorescent tracer from the target protein. The displacement of the tracer is measured and associated with a drop in fluorescence polarisation. The drop in fluorescence polarisation is proportional to the fraction of target protein bound with the non-fluorescent titrant, and thus is a measure of the affinity of titrant to target protein.
The raw data is fit to the analytical solution of the cubic equation that describes the equilibria between fluorescent tracer, titrant, and binding protein. The fit requires the value of the affinity of fluorescent tracer to the target protein, which can be determined separately by direct binding FP experiments (see previous section).

Structures are written as SMILES. Read-outs that look alike come from different tables or passages of the source. Numbered stars: 1 amine (or outer) side, 2 acyl side, 3 side chain; on linkers, the order of the positions; unused ones are H or OH. Bridge positions count the residues as written; N and C are the ends. Square brackets hold non-standard residues; d marks the D form. Peptide text beside a SMILES is read from it. * marks the point of attachment. DOTA = O=C(O)CN1CCN(CC(=O)O)CCN(CC(=O)*)CCN(CC(=O)O)CC1; Phe(4-Br) = N[C@@H](Cc1ccc(Br)cc1)C(=O)O; 1Nal = N[C@@H](Cc1cccc2ccccc12)C(=O)O; TBMB = c1c(C[*:1])cc(C[*:3])cc1C[*:2]; Tle = CC(C)(C)[C@H](N)C(=O)O; Sar = CNCC(=O)O

As to `CC[C@H](C)[C@@H]1NC(=O)[C@H](CC(=O)O)NC(=O)[C@H](Cc2ccc(O)cc2)NC(=O)[C@H](Cc2ccccc2)NC(=O)[C@H](CC(=O)O)NC(=O)[C@H](CCC(=O)O)NC(=O)[C@@H]2CSCc3cc(cc(c3)CSC[C@H](NC(C)=O)C(=O)N[C@@H](Cc3ccc(O)cc3)C(=O)N[C@@H](CC(N)=O)C(=O)N[C@@H](CCC(=O)O)C(=O)N[C@@H](Cc3ccccc3)C(=O)NCC(=O)N2)CSC[C@@H](C(N)=O)NC1=O` [17-69-07-N004, Ac-(17-69-07) (wildtype)], in data set [1], the AUC(0-inf) is 4770 ng·h/mL, the AUC(0-t) is 4770 ng·h/mL, the peak concentration (Cmax) worked out at 15800 ng/mL and the Tmax is 5 min. The clearance in data set [1] (read-out: Clearance based on AUC 0-∞) came to 20.7 mL/min/kg. Besides, in data set [1] (read-out: Elimination Half-life), the half-life was 14 min. The Vd in data set [1] (read-out: Volume of Distribution based on AUC 0-∞) was 0.4 L/kg.
Turning to `CC[C@@H](C)[C@H]1NC(=O)[C@@H](CC(=O)O)NC(=O)[C@@H](Cc2ccc(O)cc2)NC(=O)[C@@H](Cc2ccccc2)NC(=O)[C@@H](CC(=O)O)NC(=O)[C@@H](CCC(=O)O)NC(=O)[C@H]2CSCc3cc(cc(c3)CSC[C@@H](NC(=O)[C@@H](C)NC(=O)CN3CCN(CC(=O)O)CCN(CC(=O)O)CCN(CC(=O)O)CC3)C(=O)N[C@H](Cc3ccc(O)cc3)C(=O)N[C@H](CC(N)=O)C(=O)N[C@H](CCC(=O)O)C(=O)N[C@H](Cc3ccccc3)C(=O)NCC(=O)N2)CSC[C@H](C(N)=O)NC1=O` [17-69-07-N246, DOTA-A-(17-69-07) All D Amino Acids], at MT1-MMP hemopexin domain, the “potency / activity toward MT1-MMP, in words” value was “lacks any activity toward MT1-MMP”. Further, the Kd at MT1-MMP hemopexin domain (Table 15, DOTA-linked peptides) was over 5000 nM.
On the same counts, the results for `C[C@H](NC(=O)CN1CCN(CC(=O)O)CCN(CC(=O)O)CCN(CC(=O)O)CC1)C(=O)N[C@H]1CSCc2cc3cc(c2)CSC[C@H](NC(=O)[C@@H](C)NC(=O)[C@H](Cc2cccc4ccccc24)NC(=O)[C@H](CCC(=O)O)NC(=O)[C@H](CC(N)=O)NC(=O)[C@@H](C)NC1=O)C(=O)N[C@@H](CCC(=O)O)C(=O)N[C@@H](CC(=O)O)C(=O)N[C@@H](Cc1ccccc1)C(=O)N[C@@H](Cc1ccc(Br)cc1)C(=O)N[C@@H](CC(=O)O)C(=O)N[C@@H](C(C)(C)C)C(=O)N[C@H](C(N)=O)CSC3` [17-69-07-N248, DOTA-A-(17-69-07) D-Ala1 1Nal4 D-Ala5 4BrPhe9 tBuGly11] ({DOTA}-AC[dA]NE[1Nal][dA]CEDF[Phe(4-Br)]D[Tle]C-NH2; linker 2-8-15 via TBMB) are “retained potency” and 0.5 nM.
Take `CC(=O)N[C@H]1CSCc2cc3cc(c2)CSC[C@H](NC(=O)[C@@H](C)NC(=O)[C@H](Cc2cccc4ccccc24)NC(=O)[C@H](CCC(=O)O)NC(=O)[C@H](CC(N)=O)NC(=O)[C@@H](C)NC1=O)C(=O)N[C@@H](CCC(=O)O)C(=O)N[C@@H](CC(=O)O)C(=O)N[C@@H](Cc1ccccc1)C(=O)N[C@@H](Cc1ccc(Br)cc1)C(=O)N[C@@H](CC(=O)O)C(=O)N[C@@H](C(C)(C)C)C(=O)N[C@H](C(N)=O)CSC3` [17-69-07-N252, Ac-(17-69-07) D-Ala1 1Nal4 D-Ala5 4BrPhe9 tBuGly11] (Ac-C[dA]NE[1Nal][dA]CEDF[Phe(4-Br)]D[Tle]C-NH2; linker 1-7-14 via TBMB): at MT1-MMP hemopexin domain, the “potency / activity toward MT1-MMP, in words” value was “potency which is superior to wildtype”. In addition, the Kd on MT1-MMP hemopexin domain (Table 10, multi-substitution) stood at 0.8 ± 0.39 nM.
As for `CC(=O)NCC(=O)N(C)CC(=O)N(C)CC(=O)N(C)CC(=O)N(C)CC(=O)N(C)CC(=O)N(C)CC(=O)N(C)CC(=O)N(C)CC(=O)N(C)CC(=O)N(C)CC(=O)N[C@@H](C)C(=O)N[C@H]1CSCc2cc3cc(c2)CSC[C@H](NC(=O)[C@@H](C)NC(=O)[C@H](Cc2cccc4ccccc24)NC(=O)[C@H](CCC(=O)O)NC(=O)[C@H](CC(N)=O)NC(=O)[C@@H](C)NC1=O)C(=O)N[C@@H](CCC(=O)O)C(=O)N[C@@H](CC(=O)O)C(=O)N[C@@H](Cc1ccccc1)C(=O)N[C@@H](Cc1ccc(Br)cc1)C(=O)N[C@@H](CC(=O)O)C(=O)N[C@@H](C(C)(C)C)C(=O)N[C@H](C(N)=O)CSC3` [17-69-07-N255, Ac-G-Sar10-A-(17-69-07) D-Ala1 1Nal4 D-Ala5 4BrPhe9 tBuGly11] (Ac-G[Sar][Sar][Sar][Sar][Sar][Sar][Sar][Sar][Sar][Sar]AC[dA]NE[1Nal][dA]CEDF[Phe(4-Br)]D[Tle]C-NH2; linker 13-19-26 via TBMB), on MT1-MMP hemopexin domain, the “potency / activity toward MT1-MMP, in words” value is reported as “potency which is superior to wildtype”. Further, the Kd on MT1-MMP hemopexin domain (Table 11, G-Sar10-A addition) stood at 0.3 nM.
As to `CC[C@H](C)[C@@H]1NC(=O)[C@H](CC(=O)O)NC(=O)[C@H](Cc2ccc(O)cc2)NC(=O)[C@H](Cc2ccccc2)NC(=O)[C@H](CC(=O)O)NC(=O)[C@H](CCC(=O)O)NC(=O)[C@@H]2CSCc3cc(cc(c3)CSC[C@@H](C(=O)N[C@@H](C)C(N)=O)NC1=O)CSC[C@H](NC(=O)[C@H](C)N)C(=O)N[C@@H](CCSC)C(=O)N[C@@H](CC(N)=O)C(=O)N[C@@H](CCC(N)=O)C(=O)N[C@@H](Cc1ccccc1)C(=O)NCC(=O)N2` [17-69-12-N003, A-(17-69-12)-A] (H-ACMNQFGCEDFYDICA-NH2; linker 2-8-15 via TBMB), on MT1-MMP hemopexin domain (Table 3, Competition, tracer A-(17-69-07)-A-Sar6-K(Fluorescein)), the equilibrium dissociation constant (Kd) amounted to 3.7 ± 2.52 nM.
On to `CC[C@H](C)[C@@H]1NC(=O)[C@H](CC(=O)O)NC(=O)[C@H](Cc2ccc(O)cc2)NC(=O)[C@H](Cc2ccccc2)NC(=O)[C@H](CC(=O)O)NC(=O)[C@H](CCC(=O)O)NC(=O)[C@@H]2CSCc3cc(cc(c3)CSC[C@H](NC(C)=O)C(=O)N[C@@H](Cc3ccc(O)cc3)C(=O)N[C@@H](CC(N)=O)C(=O)N[C@@H](CCC(=O)O)C(=O)N[C@@H](Cc3c[nH]c4ccccc34)C(=O)NCC(=O)N2)CSC[C@@H](C(N)=O)NC1=O` [17-69-44-N002, Ac-(17-69-07) Trp4] (Ac-CYNEWGCEDFYDIC-NH2; linker 1-7-14 via TBMB), for which the Kd on MT1-MMP hemopexin domain (Table 8, substitutions at position 4) was found to be 0.75 ± 0.23 nM.
